Species on record: Rattus norvegicus
Assay: DrugMatrix - Regimen: Daily Repeat
Type: toxicity, organism-based, Sprague-Dawley
Set-up: regimen Daily Repeat, gender Male, age 6-8 weeks
Conditions: in vivo, po, route oral GAVAGE, vehicle 100 % WATER; for ABSOLUTE BASOPHIL / ABSOLUTE EOSINOPHIL / ABSOLUTE LYMPHOCYTE / ABSOLUTE MONOCYTE / ABSOLUTE SEGMENTED NEUTROPHIL / BASOPHIL / EOSINOPHIL / ERYTHROCYTE COUNT / HEMATOCRIT / HEMOGLOBIN / LEUKOCYTE COUNT / LYMPHOCYTE / MEAN CORPUSCULAR HEMOGLOBIN / MEAN CORPUSCULAR HEMOGLOBIN CONCENTRATION / MEAN CORPUSCULAR VOLUME / MONOCYTE / NEUTROPHIL / NUCLEATED RED BLOOD CELLS / PLATELET COUNT: tissue Blood; for ALANINE AMINOTRANSFERASE / ALBUMIN / ALKALINE PHOSPHATASE / ASPARTATE AMINOTRANSFERASE / BLOOD UREA NITROGEN / CARBON DIOXIDE / CHLORIDE / CHOLESTEROL / CREATINE PHOSPHOKINASE / CREATININE / GLUCOSE / LACTATE DEHYDROGENASE / LIPASE / PHOSPHORUS / SODIUM / TOTAL BILIRUBIN / TOTAL PROTEIN / URIC ACID: tissue Plasma
[1] = 0 mg/kg, 72 h, dose level Control, time 3 day
[2] = 0 mg/kg, 120 h, dose level Control, time 5 day
[3] = 100 mg/kg, 72 h, dose level Low, time 3 day

CCN(CC)C(=S)SSC(=S)N(CC)CC
ABSOLUTE BASOPHIL [1]: 0 CELLS/uL
ABSOLUTE EOSINOPHIL [1]: 58.83 CELLS/uL
ABSOLUTE LYMPHOCYTE [1]: 11823.5 CELLS/uL
ABSOLUTE MONOCYTE [1]: 169 CELLS/uL
ABSOLUTE SEGMENTED NEUTROPHIL [1]: 815.33 CELLS/uL
BASOPHIL [1]: 0%
EOSINOPHIL [1]: 0.5%
ERYTHROCYTE COUNT [1]: 5.52 x10E6/uL
HEMATOCRIT [1]: 35.77%
HEMOGLOBIN [1]: 14.28 G/DL
LEUKOCYTE COUNT [1]: 12.87 x10E3/uL
LYMPHOCYTE [1]: 91.67%
MEAN CORPUSCULAR HEMOGLOBIN [1]: 25.92 pg
MEAN CORPUSCULAR HEMOGLOBIN CONCENTRATION [1]: 39.95 G/DL
MEAN CORPUSCULAR VOLUME [1]: 64.85 fL
MONOCYTE [1]: 1.33%
NEUTROPHIL [1]: 6.5%
NUCLEATED RED BLOOD CELLS [1]: 0 /100WBC
PLATELET COUNT [1]: 1246.17 x10E3/uL
ALANINE AMINOTRANSFERASE [1]: 66 u/L
ALBUMIN [1]: 4.25 G/DL
ALKALINE PHOSPHATASE [1]: 416 u/L
ASPARTATE AMINOTRANSFERASE [1]: 106.17 u/L
BLOOD UREA NITROGEN [1]: 12.67 mg/dL
CARBON DIOXIDE [1]: 31.83 mmol/L
CHLORIDE [1]: 102.5 MEQ/L
CHOLESTEROL [1]: 69 mg/dL
CREATINE PHOSPHOKINASE [1]: 601.83 u/L
CREATININE [1]: 0.18 mg/dL
GLUCOSE [1]: 154.5 mg/dL
LACTATE DEHYDROGENASE [1]: 301.83 u/L
LIPASE [1]: 11.17 u/L
PHOSPHORUS [1]: 12.08 mg/dL
SODIUM [1]: 145.2 MEQ/L
TOTAL BILIRUBIN [1]: 0.17 mg/dL
TOTAL PROTEIN [1]: 6.1 G/DL
URIC ACID [1]: 1.57 mg/dL
ABSOLUTE BASOPHIL [2]: 0 CELLS/uL
ABSOLUTE EOSINOPHIL [2]: 19.33 CELLS/uL
ABSOLUTE LYMPHOCYTE [2]: 12577.83 CELLS/uL
ABSOLUTE MONOCYTE [2]: 106.33 CELLS/uL
ABSOLUTE SEGMENTED NEUTROPHIL [2]: 896.5 CELLS/uL
BASOPHIL [2]: 0%
EOSINOPHIL [2]: 0.17%
ERYTHROCYTE COUNT [2]: 5.84 x10E6/uL
HEMATOCRIT [2]: 36.88%
HEMOGLOBIN [2]: 14.48 G/DL
LEUKOCYTE COUNT [2]: 13.6 x10E3/uL
LYMPHOCYTE [2]: 92.17%
MEAN CORPUSCULAR HEMOGLOBIN [2]: 24.85 pg
MEAN CORPUSCULAR HEMOGLOBIN CONCENTRATION [2]: 39.3 G/DL
MEAN CORPUSCULAR VOLUME [2]: 63.23 fL
MONOCYTE [2]: 0.83%
NEUTROPHIL [2]: 6.83%
NUCLEATED RED BLOOD CELLS [2]: 0 /100WBC
PLATELET COUNT [2]: 1223.5 x10E3/uL
ALANINE AMINOTRANSFERASE [2]: 55.33 u/L
ALBUMIN [2]: 4.08 G/DL
ALKALINE PHOSPHATASE [2]: 355.5 u/L
ASPARTATE AMINOTRANSFERASE [2]: 87.67 u/L
BLOOD UREA NITROGEN [2]: 15.33 mg/dL
CARBON DIOXIDE [2]: 33.83 mmol/L
CHLORIDE [2]: 99.67 MEQ/L
CHOLESTEROL [2]: 72.17 mg/dL
CREATINE PHOSPHOKINASE [2]: 268.33 u/L
CREATININE [2]: 0.15 mg/dL
GLUCOSE [2]: 152.5 mg/dL
LACTATE DEHYDROGENASE [2]: 212.67 u/L
LIPASE [2]: 10.83 u/L
PHOSPHORUS [2]: 11.65 mg/dL
SODIUM [2]: 142.43 MEQ/L
TOTAL BILIRUBIN [2]: 0.23 mg/dL
TOTAL PROTEIN [2]: 6.07 G/DL
URIC ACID [2]: 1.7 mg/dL
ABSOLUTE BASOPHIL [3]: 0 CELLS/uL
ABSOLUTE EOSINOPHIL [3]: 157.33 CELLS/uL
ABSOLUTE LYMPHOCYTE [3]: 16865.67 CELLS/uL
ABSOLUTE MONOCYTE [3]: 329 CELLS/uL
ABSOLUTE SEGMENTED NEUTROPHIL [3]: 2381.33 CELLS/uL
BASOPHIL [3]: 0%
EOSINOPHIL [3]: 0.67%
ERYTHROCYTE COUNT [3]: 5.56 x10E6/uL
HEMATOCRIT [3]: 35.37%
HEMOGLOBIN [3]: 14.23 G/DL
LEUKOCYTE COUNT [3]: 19.73 x10E3/uL
LYMPHOCYTE [3]: 85.67%
MEAN CORPUSCULAR HEMOGLOBIN [3]: 25.63 pg
MEAN CORPUSCULAR HEMOGLOBIN CONCENTRATION [3]: 40.27 G/DL
MEAN CORPUSCULAR VOLUME [3]: 63.63 fL
MONOCYTE [3]: 1.67%
NEUTROPHIL [3]: 12%
NUCLEATED RED BLOOD CELLS [3]: 0 /100WBC
PLATELET COUNT [3]: 1201.33 x10E3/uL
ALANINE AMINOTRANSFERASE [3]: 56 u/L
ALBUMIN [3]: 3.87 G/DL
ALKALINE PHOSPHATASE [3]: 264.33 u/L
ASPARTATE AMINOTRANSFERASE [3]: 73.33 u/L
BLOOD UREA NITROGEN [3]: 11.67 mg/dL
CARBON DIOXIDE [3]: 31.67 mmol/L
CHLORIDE [3]: 102.33 MEQ/L
CHOLESTEROL [3]: 84.33 mg/dL
CREATINE PHOSPHOKINASE [3]: 223.33 u/L
CREATININE [3]: 0.28 mg/dL
GLUCOSE [3]: 140.67 mg/dL
LACTATE DEHYDROGENASE [3]: 124 u/L
LIPASE [3]: 14.33 u/L
PHOSPHORUS [3]: 11.63 mg/dL
SODIUM [3]: 144.57 MEQ/L
TOTAL BILIRUBIN [3]: 0.1 mg/dL
TOTAL PROTEIN [3]: 5.7 G/DL
URIC ACID [3]: 1.23 mg/dL

Reference: ChEMBL document CHEMBL3885881, “DrugMatrix”
